Experiments:
[1] = target: T1, HCV NS3/4A 1b protease enzyme (wild type) (Hepatitis C virus genotype 1b, UniProt P26663); assay: HCV protease FRET assay (IC50_APP), wild type NS3/4A 1b; type: biochemical
T1 construct: 10× stocks of NS3/4A protease enzyme from Bioenza (Mountain View, Calif.); purchased Bioenza
Experimental: HCV Protease FRET Assay for WT and Mutated NS3/4A 1b Enzymes (IC50_APP).
The following protocol was used to generate “apparent” IC50 (IC50_APP) values as depicted in Table 6, below. Without wishing to be bound by any particular theory, it is believed that IC50_APP, contrasted with IC50 values, may provide a more useful indication of time-dependent inhibition, and are thus more representative of binding affinity. […] 5 μL of each enzyme were added to Corning (#3575) 384-well, black, microtiter plates (Corning, N.Y.) after spotting a 0.5 μL volume of 50% DMSO and serially diluted compounds prepared in 50% DMSO. Protease reactions were immediately started after enzyme addition with the addition of 45 μL of the FRET substrate and monitored for 60-90 minutes at λex485/λem520 in a Synergy plate reader from BioTek (Winooski, Vt.). At the conclusion of each assay, progress curves from each well were examined for linear reaction kinetics and fit statistics (R^2, 95% confidence intervals, absolute sum of squares). Initial velocity (0 minutes to 15+ minutes) from each reaction was determined from the slope of a plot of relative fluorescence units vs time (minutes) and then plotted against inhibitor concentration as a percent of the no inhibitor and no enzyme controls to estimate apparent IC50 from log [Inhibitor] vs Response. (Variable Slope model in GraphPad Prism from GraphPad Software (San Diego, Calif.).)

HCV NS3 protease WT 1b = target: T2, HCV NS3 protease WT 1b (Hepatitis C virus genotype 1b, UniProt P26663); assay: MALDI MS of intact HCV protease 1b WT incubated with compound; type: binding
T2 construct: The single-chain proteolytic domain (NS4A21-32-GSGS-NS33-631) was cloned into pET-14b; His tag (own knowledge of vector pET-14b); made in house; host or cells: Escherichia coli BL21
Experimental: Intact HCV (protease) 1bWT was incubated for 1 hr at a 10× fold excess of XVI-26 to protein. 3 ul aliquots of the samples were diluted with 10 ul of 0.1% TFA prior to micro C4 ZipTipping directly onto the MALDI target using Sinapinic acid as the desorption matrix (10 mg/mL in 0.1% TFA:Acetonitrile 50:50). […] Due to likely protein misfolding during protein purification, a small portion of the misfolded protein was not modified.
In order to determine whether the modification of the protein occurred at lysine, the pH from the above experiment was increased from 7.4 to 10.0. Because the compound lysine adduct would be an amide any increase in pH would have minimal effect on the modified protein. If however, the modification occurred at cysteine the resultant thioester bond would be unstable and the compound would hydrolyze off the protein.
Intact HCV (protease) 1bWT, C159S, and C159S/K136A were incubated for 1 hr at a 10× fold excess of XVI-26 to protein. 3 μl aliquots of the samples were diluted with 10 μl of 0.1% TFA prior to micro C4 ZipTipping directly onto the MALDI target using Sinapinic acid as the desorption matrix (10 mg/mL in 0.1% TFA:Acetonitrile 50:50).
Intact HCV (protease) WT1b was incubated for 1 hr at a 10× fold excess of XVI-1 (mw=782.87) to protein. 3 μl aliquots of the samples were diluted with 10 μl of 0.1% TFA prior to micro C4 ZipTipping directly onto the MALDI target using Sinapinic acid as the desorption matrix (10 mg/mL in 0.1% TFA:Acetonitrile 50:50). […] Due to some protein misfolding during the purification of the protein, the unfolded portion of the protein can not react with XVI-1.

p110β/p85α (PI3Kβ) = target: T3, p110β/p85α (PI3Kβ) (Homo sapiens, UniProt P42338); assay: HTRF assay, p110β/p85α; type: biochemical; conditions: read-out: PI3Kβ HTRF IC50 Inhibition Designation
T3 construct: purchased Millipore 14-603
Experimental: The mechanics of the assay platform are best described by the vendor (Millipore, Billerica, Mass.) on their website at the following URL: http://www.millipore.com/coa/tech1/74jt4z.
Briefly, Stop solution (Stop A, #33-007 and Stop B, #33-009; 3:1 ratio) and Detection Mix (DMC, #33-015 with DMA, #33-011 and DMB, #33-013; 18:1:1 ratio) were prepared as recommended by the manufacturer ˜2 hrs prior to use. […] Lipid kinase reactions were started with the addition of 5 μL of ATP solution, mixed for 15 sec on a rotary plate shaker and incubated for 15-30 minutes at 25° C. Next, reactions were stopped with a 5 μL addition of Stop solution followed by a 5 μL volume of Detection Mix. […] At the conclusion of each assay, the HTRF ratio from fluorescence emission values for each well was calculated and % Inhibition determined from averaged controls wells. % Inhibition values for each compound re then plotted against inhibitor concentration to estimate IC50 from log [Inhibitor] vs Response, Variable Slope model in GraphPad Prism from GraphPad Software (San Diego, Calif.).

p120γ (PI3Kγ) = target: T4, p120γ (PI3Kγ) (Homo sapiens, UniProt P48736); assay: HTRF assay, p120γ; type: biochemical; conditions: PI3Kγ; read-out: PI3Kγ HTRF IC50 Inhibition Designation
T4 construct: purchased BPS Bioscience 40625
How it was run: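 End-point competition-binding HTRF with 1-4 nM enzyme and 10 μM di-C8-PIP2, pre-incubated with compound 30 min at 25° C, then 50 μM ATP for 15-30 min at 25° C. HTRF ratio (665/620 nm) gave % inhibition; IC50 from variable-slope log-dose fit.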

| Compound | IC50 [1] [nM] | MS_HCVNS3_INTACT_NS3 WT 1b 1 HR (HCV NS3 protease WT 1b) | conversion of HCV NS3 WT1b (HCV NS3 protease WT 1b; 1 hr, 10× fold excess) [%] | positive mass shift of HCV 1bWT (HCV NS3 protease WT 1b; 1 hr, 10× fold excess of compound to protein) [Da] | IC50 (p110β/p85α (PI3Kβ)) [nM] | IC50 (p120γ (PI3Kγ)) [nM] |
| --- | --- | --- | --- | --- | --- | --- |
| C=C[C@@H]1C[C@]1(NC(=O)[C@@H]1CC(OC(=O)N2Cc3cccc(F)c3C2)CN1C(=O)[C@H](CCC(=O)N1C[C@@H]2C[C@H]1C(=O)O2)NC(=O)OC(C)(C)C)C(=O)NS(=O)(=O)C1CC1 (stereo partly drawn) [XVI-17, (5S)-1-((S)-2-(tert-butoxycarbonylamino)-5-oxo-5-((1S,4S)-3-oxo-2-oxa-5-azabicyclo[2.2.1]heptan-5-yl)pentanoyl)-5-((1R,2S)-1-(cyclopropylsulfonylcarbamoyl)-2-vinylcyclopropylcarbamoyl)pyrrolidin-3-yl 4-fluoroisoindoline-2-carboxylate] | < 1 | G (>70% modification) | – | – | – | – |
| C=C[C@@H]1C[C@]1(NC(=O)[C@@H]1C[C@@H](OC(=O)N2Cc3cccc(F)c3C2)CN1C(=O)[C@H](CNC(=O)c1coc(C(C)=O)c1)NC(=O)OC(C)(C)C)C(=O)NS(=O)(=O)C1CC1 [XVI-5] | 100 to 1000 | K (≤30% modification) | – | – | – | – |
| C=C[C@@H]1C[C@]1(NC(=O)[C@@H]1CC(Oc2nccc3cc(OC)ccc23)CN1C(=O)[C@H](CCC(=O)N1CC[C@H]2C[C@@H]1C(=O)O2)NC(=O)OC(C)(C)C)C(=O)NS(=O)(=O)C1CC1 (stereo partly drawn) [XVI-2] | < 1 | K (≤30% modification) | – | – | – | – |
| C=C[C@@H]1C[C@]1(NC(=O)[C@@H]1CC(OC(=O)N2Cc3cccc(F)c3C2)CN1C(=O)[C@H](CC(=O)N1C[C@H]2C[C@@H]1C(=O)O2)NC(=O)OC(C)(C)C)C(=O)NS(=O)(=O)C1CC1 (stereo partly drawn) [XVI-14, (5S)-1-((S)-2-(tert-butoxycarbonylamino)-4-oxo-4-((1R,4R)-3-oxo-2-oxa-5-azabicyclo[2.2.1]heptan-5-yl)butanoyl)-5-((1R,2S)-1-(cyclopropylsulfonylcarbamoyl)-2-vinylcyclopropylcarbamoyl)pyrrolidin-3-yl 4-fluoroisoindoline-2-carboxylate] | < 1 | H (>50% and ≤70% modification) | – | – | – | – |
| C=C[C@@H]1C[C@]1(NC(=O)[C@@H]1CC(Oc2cc(-c3ccccc3)nc3cc(OC)ccc23)CN1C(=O)[C@H](CNC(=O)[C@@H]1CCC(=O)O1)NC(=O)OC(C)(C)C)C(=O)NS(=O)(=O)C1CC1 (stereo partly drawn) [XVI-24, tert-butyl(2S)-1-((2S)-2-((1R,2S)-1-(cyclopropylsulfonylcarbamoyl)-2-vinylcyclopropylcarbamoyl)-4-(7-methoxy-2-phenylquinolin-4-yloxy)pyrrolidin-1-yl)-1-oxo-3-((S)-5-oxotetrahydrofuran-2-carboxamido)propan-2-ylcarbamate] | 1 to 10 | K (≤30% modification) | – | – | – | – |
| C=C[C@@H]1C[C@]1(NC(=O)[C@@H]1CC(OC(=O)N2Cc3cccc(F)c3C2)CN1C(=O)[C@H](CCC(=O)N1C[C@H]2C[C@@H]1C(=O)O2)NC(=O)OC(C)(C)C)C(=O)NS(=O)(=O)C1CC1 (stereo partly drawn) [XVI-16, (5S)-1-((S)-2-(tert-butoxycarbonylamino)-5-oxo-5-((1R,4R)-3-oxo-2-oxa-5-azabicyclo[2.2.1]heptan-5-yl)pentanoyl)-5-((1R,2S)-1-(cyclopropylsulfonylcarbamoyl)-2-vinylcyclopropylcarbamoyl)pyrrolidin-3-yl 4-fluoroisoindoline-2-carboxylate] | < 1 | H (>50% and ≤70% modification) | – | – | – | – |
| C=C[C@@H]1C[C@]1(NC(=O)[C@@H]1CC(Oc2nccc3cc(OC)ccc23)CN1C(=O)[C@H](CCC(=O)N1C[C@H]2C[C@@H]1C(=O)O2)NC(=O)OC(C)(C)C)C(=O)NS(=O)(=O)C1CC1 (stereo partly drawn) [XVI-8] | < 1 | G (>70% modification) | – | – | – | – |
| C=C[C@@H]1C[C@]1(NC(=O)[C@@H]1CC(Oc2nccc3cc(OC)ccc23)CN1C(=O)[C@H](CCC(=O)N1C[C@@H]2CC[C@H]1C(=O)O2)NC(=O)OC(C)(C)C)C(=O)NS(=O)(=O)C1CC1 (stereo partly drawn) [XVI-3, tert-butyl(2S)-1-((2S)-2-((1R,2S)-1-(cyclopropylsulfonylcarbamoyl)-2-vinylcyclopropylcarbamoyl)-4-(6-methoxyisoquinolin-1-yloxy)pyrrolidin-1-yl)-1,5-dioxo-5-((1S,4S)-3-oxo-2-oxa-5-azabicyclo[2.2.2]octan-5-yl)pentan-2-ylcarbamate] | < 1 | K (≤30% modification) | – | – | – | – |
| C=C[C@@H]1C[C@]1(NC(=O)[C@@H]1C[C@@H](Oc2nccc3cc(OC)ccc23)CN1C(=O)[C@H](CCC(=O)N1CCC1=O)NC(=O)OC(C)(C)C)C(=O)NS(=O)(=O)C1CC1 [XVI-1, tert-butyl (S)-1-((2S,4R)-2-((1R,2S)-1-(cyclopropylsulfonylcarbamoyl)-2-vinylcyclopropylcarbamoyl)-4-(6-methoxyisoquinolin-1-yloxy)pyrrolidin-1-yl)-1,5-dioxo-5-(2-oxoazetidin-1-yl)pentan-2-ylcarbamate] | < 1 | G (>70% modification) | ~72 | 755 | – | – |
| Nc1ncc(-c2nc(N3CCOCC3)c3sc(CN4CCN(C(=O)C5CCC(=O)S5)CC4)cc3n2)cn1 (stereo not drawn) [XXII-32, 5-(4-((2-(2-aminopyrimidin-5-yl)-4-morpholinothieno[3,2-d]pyrimidin-6-yl)methyl)piperazine-1-carbonyl)dihydrothiophen-2(3H)-one] | – | – | – | – | 100 to 1000 | 100 to 1000 |
| CC(C)Oc1c(NCC(=O)N2CCN(Cc3cc4nc(-c5cnc(N)nc5)nc(N5CCOCC5)c4s3)CC2)c(=O)c1=O [XXII-27, 3-(2-(4-((2-(2-aminopyrimidin-5-yl)-4-morpholinothieno[3,2-d]pyrimidin-6-yl)methyl)piperazin-1-yl)-2-oxoethylamino)-4-isopropoxycyclobut-3-ene-1,2-dione] | – | – | – | – | 100 to 1000 | 100 to 1000 |
| O=C1CC[C@H](C(=O)N2CCN(Cc3cc4nc(-c5cccc6[nH]ncc56)nc(N5CCOCC5)c4s3)CC2)O1 [XXII-22] | – | – | – | – | 100 to 1000 | 100 to 1000 |
| C/C=C/S(=O)(=O)N1CCN(Cc2cc3nc(-c4cnc(N)nc4)nc(N4CCOCC4)c3s2)CC1 [XXII-25, (E)-5-(4-morpholino-6-((4-(prop-1-enylsulfonyl)piperazin-1-yl)methyl)thieno[3,2-d]pyrimidin-2-yl)pyrimidin-2-amine] | – | – | – | – | 100 to 1000 | 10 to 100 |
| Nc1ncc(-c2nc(N3CCOCC3)c3sc(CN4CCN(C(=O)C5CCSC5=O)CC4)cc3n2)cn1 (stereo not drawn) [XXII-30, 3-(4-((2-(2-aminopyrimidin-5-yl)-4-morpholinothieno[3,2-d]pyrimidin-6-yl)methyl)piperazine-1-carbonyl)dihydrothiophen-2(3H)-one] | – | – | – | – | 100 to 1000 | 10 to 100 |
